Laboratory results reported in PubChem BioAssay (NCI).
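Method: 48-hour compound exposure of cells in 96-well plates, five concentrations, linear interpolation of endpoints. TGI: total growth inhibition.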

Assays:
Test in all cases: inhibition of tumour cell growth, NCI panel, 48 h
DMS 273 small cell lung = test system: DMS 273 small cell lung
EKVX NSCLC = test system: EKVX NSCLC
SK-MEL-5 melanoma = test system: SK-MEL-5 melanoma
DLD-1 colon = test system: DLD-1 colon
SNB-78 CNS = test system: SNB-78 CNS
RXF-631 renal = test system: RXF-631 renal
DMS 114 small cell lung = test system: DMS 114 small cell lung
LXFL 529 NSCLC = test system: LXFL 529 NSCLC
M19-MEL melanoma = test system: M19-MEL melanoma
KM20L2 colon = test system: KM20L2 colon
UACC-62 melanoma = test system: UACC-62 melanoma
XF 498 CNS = test system: XF 498 CNS
HOP-18 NSCLC = test system: HOP-18 NSCLC

Row | SMILES | TGI (DMS 273 small cell lung) | TGI (EKVX NSCLC) | TGI (SK-MEL-5 melanoma) | TGI (DLD-1 colon) | TGI (SNB-78 CNS) | TGI (RXF-631 renal) | TGI (DMS 114 small cell lung) | TGI (LXFL 529 NSCLC) | TGI (M19-MEL melanoma) | TGI (KM20L2 colon) | TGI (UACC-62 melanoma) | TGI (XF 498 CNS) | TGI (HOP-18 NSCLC)
1 | OCCN1CCN(CCO)Cc2ccccc2OCCOc2ccccc2C1 | > 100 µM | > 100 µM | > 100 µM | > 100 µM | > 100 µM | > 100 µM | > 100 µM | > 100 µM | > 100 µM | > 100 µM | – | – | –
2 | CCN1C(C)=NC2C(=O)c3ccccc3C(=O)C21 (centres undefined) | > 100 µM | – | 68 µM | – | – | > 100 µM | > 100 µM | > 100 µM | > 100 µM | 68.2 µM | > 100 µM | > 100 µM | –
3 | CN1C(=O)n2c(nc3ccccc32)C(N=[N+]=[N-])(N=[N+]=[N-])C1=O (centres undefined) | > 100 µM | > 100 µM | > 100 µM | > 100 µM | > 100 µM | > 100 µM | > 100 µM | > 100 µM | > 100 µM | > 100 µM | > 100 µM | > 100 µM | > 100 µM
4 | CS(=O)(=O)c1nc(N)nc2nc[nH]c12 | > 100 µM | > 100 µM | > 100 µM | > 100 µM | > 100 µM | – | > 100 µM | > 100 µM | > 100 µM | > 100 µM | > 100 µM | > 100 µM | > 100 µM
